The text below walks through data of article PMC3364214, “Role of Operon aaoSo-mutT in Antioxidant Defense in Streptococcus oligofermentans” (PLoS ONE, 2012).

SMILES strings stand for the structures.

The test concerns the target T1, MutT (Streptococcus cristatus, UniProt A0ABN4B3E2).
T1 construct: gene I872_01330; mutT (453 bp fragment) in NcoI-XhoI of pET-28a, His6-tag fusion (C-terminal by the primers), E. coli BL21(DE3) pLysS, Histrap purified; tag removal not mentioned
T1 sequence (A0ABN4B3E2 1-151): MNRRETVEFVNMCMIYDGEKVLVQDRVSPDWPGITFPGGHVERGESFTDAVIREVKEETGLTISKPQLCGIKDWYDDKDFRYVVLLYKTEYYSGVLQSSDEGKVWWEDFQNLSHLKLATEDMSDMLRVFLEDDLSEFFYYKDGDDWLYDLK
In words: HPLC of 8-oxo-dGTP degradation (UV […] nm). As to conditions: 100 uM substrate, 100 nM MutT, 5 mM MgCl2, 100 mM Tris-HCl pH 9.0, 5% glycerol, 37 C, 20 min. It counts as biochemical.

Turning to `Nc1nc2c([nH]c(=O)n2[C@H]2C[C@H](O)[C@@H](COP(=O)(O)OP(=O)(O)OP(=O)(O)O)O2)c(=O)[nH]1` [8-oxo-dGTP], the “HPLC of 8-oxo-dGTP degradation (UV 293 nm)” value was “reduction of 8-oxo-dGTP levels was detected in the reaction mixture by HPLC”.
